Values quoted from earlier work as cited in US7300792B2, “Lux expression in eukaryotic cells” (University of Tennessee Research Foundation, priority 2002, dated 2007).

Tested on: lower eukaryotes
Conditions: lower eukaryotes (yeast)

CCCCCCCCCC=O [n-decylaldehyde]
Toxicity: toxic to lower eukaryotes
